Measured values from patent EP0326331B1, “Substituted quinolines and cinnolines” (Dow AgroSciences LLC, priority 1988, dated 1989).
Read-outs that look alike come from different tables or passages of the source.

Assays:
Assay type in all cases: in vivo
corn rootworm = experiment: Mite/insect screen, CRW; conditions: read-out: CRW RESULTS %
Summary of the method: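 Compounds were dissolved in 50:50 acetone/alcohol containing sulfonate/nonionic emulsifier blends (23 g/L plus 13 g/L), then diluted with water to the test concentrations. Percent mortality was scored after standard exposure periods.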

[1] = tested on: Twospotted spider mites (Tetranychus urticae Koch); experiment: Mite/insect screen, SM; conditions: for mortality at 200 ppm / mortality at 400 ppm: Tetranychus urticae, foliar, read-out: SM RESULTS %; for activity as miticides: summary statement in the description
Summary of the method: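 Activity is expressed as percent mortality at the indicated spray concentrations. Plants are sprayed to runoff on upper and lower leaf surfaces with aqueous dilutions of an acetone/alcohol emulsifiable formulation, then dried for one hour.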

[2] = tested on: Septoria tritici (leaf blotch); experiment: Test 1 greenhouse foliar spray screen, leaf blotch on wheat; conditions: Zymoseptoria tritici; Test 1, foliar spray on wheat; disease control rating at 400 ppm / 100 ppm; read-out: LEAF BLOT
[3] = tested on: Venturia inaequalis (apple scab); experiment: Test 1 greenhouse foliar spray screen, apple scab on apple seedling; conditions: Venturia inaequalis; Test 1, foliar spray on apple seedling; disease control rating at 400 ppm / 100 ppm; read-out: APPL SCAB
[4] = tested on: Puccinia recondita tritici (leaf rust); experiment: Test 1 greenhouse foliar spray screen, leaf rust on wheat; conditions: Puccinia recondita, foliar, Test 1, foliar spray on wheat; disease control rating at 400 ppm / 100 ppm
[5] = tested on: Pyricularia oryzae (rice blast); experiment: whole plant or invertebrate; conditions: for pest or weed control at 400 ppm: Pyricularia oryzae, foliar, read-out: RICE BLAST, Test 1, foliar spray on rice, disease control rating at 400 ppm / 100 ppm
[6] = tested on: Cercospora beticola (leaf spot); experiment: Test 1 greenhouse foliar spray screen, leaf spot on sugar beet; conditions: Cercospora beticola; Test 1, foliar spray on sugar beet; disease control rating at 400 ppm / 100 ppm
[7] = tested on: melon aphids (Aphis gossypii Glover); experiment: Mite/insect screen, MA; conditions: Aphis gossypii, foliar, read-out: MA RESULTS %
Summary of the method: (§1)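 Compounds dissolved in 50:50 acetone/alcohol containing sulfonate/nonionic emulsifier blends, then diluted with water to the indicated concentrations. Leaves sprayed on both surfaces to runoff at 10 psi and dried one hour. Percent mortality scored after standard exposure periods.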

[8] = tested on: southern armyworm (Spodopetra eridania Cramer); experiment: Mite/insect screen, SAW; conditions: Spodoptera eridania, foliar, read-out: SAW RESULTS %
Summary of the method: as §1

[9] = tested on: Botrytis cinerea (gray mold); experiment: Test 1 greenhouse foliar spray screen, gray mold on grape berries; conditions: Botrytis cinerea, foliar; Test 1, spray on grape berries; disease control rating at 400 ppm / 100 ppm
[10] = tested on: Erysiphe graminis tritici (powdery mildew); experiment: Test 1 greenhouse foliar spray screen, powdery mildew on wheat; conditions: Blumeria graminis, foliar, Test 1, foliar spray on wheat; disease control rating at 400 ppm / 100 ppm; read-out: POWD MDEW
[11] = tested on: Pseudoperonospora cubensis (downy mildew); experiment: Test 1 greenhouse foliar spray screen, downy mildew on squash; conditions: for pest or weed control at 400 ppm: Pseudoperonospora cubensis, foliar, Test 1, foliar spray on squash, disease control rating at 400 ppm / 100 ppm, read-out: DOWN MDEW; for activity against downy mildew: summary statement in the description
[12] = percent mortality, CRW rate 12.00 ppm
[13] = percent mortality, CRW rate 24.00 ppm
[14] = percent mortality, rate 200 ppm, foliar spray on squash
[15] = percent mortality, rate 400 ppm, foliar spray on squash

Structure (SMILES)	mortality at 12 ppm (corn rootworm; [12]) [%]	mortality at 24 ppm (corn rootworm; [13]) [%]	mortality at 200 ppm [1, 14] [%]	mortality at 400 ppm [1, 15] [%]	pest or weed control at 400 ppm [2] [%]	pest or weed control at 400 ppm [3] [%]	pest or weed control at 400 ppm [4] [%]	pest or weed control at 400 ppm [5] [%]	pest or weed control at 400 ppm [6] [%]	mortality at 200 ppm [7, 14] [%]	mortality at 400 ppm [7, 15] [%]	mortality at 200 ppm [8, 14] [%]	mortality at 400 ppm [8, 15] [%]	pest or weed control at 400 ppm [9] [%]	pest or weed control at 400 ppm [10] [%]	pest or weed control at 400 ppm [11] [%]	other results
Fc1cccc2c(OCCc3cccc(Cl)c3)ccnc12 [Example 201, 4-[2-(3-chlorophenyl)ethoxy]-8-fluoroquinoline]	0	0	80	80	90 to 100	20 to 89	90 to 100	20 to 89	90 to 100	100	100	0	0	0 to 19	90 to 100	90 to 100	activity as miticides [1]: particularly excellent activity; activity against downy mildew [11]: particularly excellent activity
Clc1ccc2c(OCCc3ccccc3)ccnc2c1 [Example 202, 7-chloro-4-(2-phenylethoxy)quinoline]	0	0	0	0	20 to 89	0 to 19	90 to 100	20 to 89	20 to 89	0	0	0	0	0 to 19	90 to 100	90 to 100	–
Fc1cccc2c(OCCc3cccc(C(F)(F)F)c3)ccnc12 [Example 203, 8-fluoro-4-[2-(3-(trifluoromethyl)phenyl)ethoxy]quinoline]	–	–	–	–	90 to 100	20 to 89	90 to 100	90 to 100	20 to 89	–	–	–	–	0 to 19	20 to 89	90 to 100	mortality at 12 ppm (corn rootworm): 0%; mortality at 24 ppm (corn rootworm): 0%; mortality at 200 ppm [1]: 0%; mortality at 400 ppm [1]: 0%; activity as miticides [1]: particularly excellent activity; activity against rice blast ([5]; summary statement in the description): particularly excellent activity; mortality at 200 ppm [7]: 100%; mortality at 400 ppm [7]: 90%; mortality at 200 ppm [8]: 10%; mortality at 400 ppm [8]: 0%; activity against downy mildew [11]: particularly excellent activity
Clc1cccc2c(OCCc3ccccc3)ccnc12 [Example 207, 8-chloro-4-(2-phenylethoxy)quinoline]	0	–	0	–	90 to 100	20 to 89	90 to 100	90 to 100	20 to 89	0	–	0	–	0 to 19	90 to 100	90 to 100	–
c1ccc(CCOc2ccnc3ccccc23)cc1 [Example 208, 4-(2-phenylethoxy)quinoline]	0	–	10	–	20 to 89	0 to 19	90 to 100	90 to 100	20 to 89	10	–	0	–	0 to 19	90 to 100	90 to 100	–
Clc1ccc(CCOc2ccnc3ccccc23)cc1 [Example 211, 4-[2-(4-chlorophenyl)ethoxy]quinoline]	0	–	10	–	90 to 100	0 to 19	90 to 100	90 to 100	90 to 100	40	–	0	–	0 to 19	90 to 100	90 to 100	–
CC(Cc1ccccc1)Oc1ccnc2ccccc12 (stereo not shown) [Example 213, 4-(1-methyl-2-phenylethoxy)quinoline]	0	–	0	–	20 to 89	20 to 89	90 to 100	90 to 100	0 to 19	0	–	0	–	0 to 19	20 to 89	90 to 100	–
CC(COc1ccnc2c(F)cccc12)c1ccccc1 (stereo not shown) [Example 220, 4-(2-phenylpropoxy)-8-fluoroquinoline]	0	0	0	0	0 to 19	20 to 89	90 to 100	20 to 89	0 to 19	0	0	0	0	0 to 19	90 to 100	90 to 100	–
Fc1ccc(CCOc2ccnc3c(F)cccc23)cc1 [Example 222, 8-fluoro-4-[2-(4-fluorophenyl)ethoxy]quinoline]	0	0	0	0	90 to 100	90 to 100	90 to 100	20 to 89	20 to 89	50	40	0	0	0 to 19	20 to 89	90 to 100	–
COc1ccccc1CCOc1ccnc2ccccc12 [Example 229, 4-[2-(2-methoxyphenyl)ethoxy]quinoline]	0	0	50	0	20 to 89	0 to 19	90 to 100	90 to 100	0 to 19	50	0	0	0	0 to 19	20 to 89	90 to 100	–
Clc1ccc2c(OCCc3ccc(-c4ccccc4)cc3)ccnc2c1 [Example 230, 7-chloro-4-[2-(1,1'-biphenyl)-4-yl-ethoxy]quinoline]	0	0	100	80	0 to 19	0 to 19	20 to 89	0 to 19	0 to 19	90	0	0	0	0 to 19	90 to 100	0 to 19	activity as miticides [1]: particularly excellent activity
